Reference: US20140271499A1, “ARTICLE AND METHOD OF INITIATING BONE REGROWTH AND RESTORATION OF GUM RECESSION WITH LOCALIZED SUBGINGIVAL DELIVERY OF MEDICATIONS” (priority 2013, published 2014)
“Also recorded” adds a separate entry of the source.

Key:
[1] = tested on: alveolar bone; test: Clinical cases: topical tray delivery to the periodontal pocket, alveolar bone and gingival tissue regrowth; format: in vivo, patient
Text: (§1) One exemplary method will now be described. An initial examination determines the conditions of the patient's periodontal disease. Models of the patient along with their periodontal probing is forwarded to a laboratory registered to make the custom formed medical device (Perio Tray), which is capable of delivering about 1.7% hydrogen peroxide gel (Perio Gel) to the diseased tissue. […] The depth of the biofilm and the tissue damage that exist determines the frequency and duration of usage. Patients with severe tissue damage (6 mm or greater) use the Perio Tray about 4 times a day. Patients with moderate damage (3 mm to 6 mm) use the Perio Tray about 3 times a day and patients maintain their health using the trays once or twice a day for about 15 minutes.
After the photographs of FIGS. 12A, 14A, 16A, and 18A were taken in 2004, the patient began a treatment as described above that included regular direct/topical medication delivery to the a to the gingival sulcus and/or periodontal pocket 37 in 2004 delivering doxycycline subgingival and interproximal with the medicament delivery tray.
The fact teeth appear longer as we age is supported in the literature. This is explained as a greater action of osteoclasts as compared to the cellular activity of osteoblasts with a resultant decrease in alveolar bone 40B around the patient's teeth 10 with an accompanying loss of gingival tissue 24B appearing as receding gum tissue 24B and the exposure of a greater root surface making the teeth 10 appear longer.

[2] = tested on: osteoclasts; test: Initial study of osteoclastic and osteoblastic activity on exposure to doxycycline; format: cell-based; settings: exposed to doxycycline
Text: Doxycycline bonds to internal and external calcium ions causing osteoclasts to detach from the bone, thus decreasing or stopping bone loss. […] The stoppage of bone loss and the maintenance of bone regeneration results in a net gain of new bone over time as long as the doxycycline is continually delivered to the bone/tissue interface with the currently disclosed method.

[3] = tested on: oral biofilm; test: Penetration and eradication of oral biofilm by hydrogen peroxide gel
Text: as §1

[4] = tested on: biofilm bacteria
[5] = oxygen delivered directly to the tissues

## C[C@H]1c2cccc(O)c2C(=O)C2=C(O)[C@]3(O)C(=O)C(C(N)=O)=C(O)[C@@H](N(C)C)[C@@H]3[C@@H](O)[C@@H]21 [doxycycline]
[1]; case studies, direct delivery to the periodontal pocket
  tooth mobility: decrease
[1]; clinic tests
  formation of new osteoclasts by precursor cells: completely stopped; also recorded: completely abrogates
[1]; delivery to gingival sulcus or periodontal pocket
  bone loss and bone regeneration: stops bone loss and augments bone regeneration
[1]; lengthy clinic tests
  attachment of osteoclasts to bone: inhibit
  cellular activity of osteoblasts: maintain or increase
[1]; patient treated 1976 to 2012, hydrogen peroxide and topically applied doxycycline
  alveolar bone (radiographs): regrown and increased
[2]
  formation of new osteoclasts from osteoclastic precursor cells: completely abrogated
  osteoblastic activity: augmentation
  osteoclastic activity: decrease

## OO [hydrogen peroxide]
[3]
  kill of biofilm bacteria: 99.999%
[4]; in 14 to 17 days
  eradication of biofilm bacteria: 99.98%
[4]; [5]
  time to bring to an end the facultative anaerobes: 7 days
  time to kill the obligate anaerobes: 2 days
